“And” between values parts separate entries of the source, which are not always exact repeats. Equal entries are not always repeated. Where two headings read alike, the source gives them in different places.
System: Stat3-ER expressing A375 cells
Type: cell-based
Procedure: In order to understand Stat3's ability to affect cell proliferation and cell death, we have examined the profile of genes expressed upon Stat3 activation in A375 cells using oligonucleotide microarrays.
Briefly, microarray analysis was performed using HG U95A GeneChips™ (Affymetrix, Santa Clara, USA) essentially according to the manufacturer's instructions. […] RNA from three independent experiments was pooled and biotin-labeled cRNA probes were generated from each sample starting from 10 μg of total cellular RNA. The resulting biotinylated cRNAs were hybridized to the Affymetrix U95A oligonucleotide array containing more than 12,000 sequences and signals detected. Chip analysis was performed using the Affymetrix Microarray Suite v5 (target intensity 500 used for chip scaling) and GeneSpring 4.2.1 (Silicon Genetics). Changes in gene expression were assessed by looking for concordant changes between replicates using a signed Wilcoxon rank test (as recommended by Affymetrix).

**Q.** Which results are given for oncostatin M [OSM]?
**A.** expression change (fold): H. sapiens mRNA; cDNA DZFZp586N012: 1.5 and 1.6; expression change (fold): Absent in melanoma 2 (Avge of clones): 2.9; expression change (fold): Alpha-1-antichymotrypsin precursor (Avge of clones): 2.8; expression change (fold): Aquaporin 3 (Avge of clones): 4.1; expression change (fold): Brain-derived neurotrophic factor (Avge of clones): 4.8; expression change (fold): CCAAT/enhancer binding protein (C/EBP), delta (Avge of clones): 2.7; expression change (fold): Cathepsin L (Avge of clones): 2.8; expression change (fold): Cytokine receptor-like factor 1 (Avge of clones): 1.9; expression change (fold): Death-associated protein kinase 1 (Avge of clones): 5.2; expression change (fold): Ephrin A1 precursor (Avge of clones): 2.1; expression change (fold): Ets variant gene 6 (Avge of clones): 3.9; expression change (fold): Fibronectin (Avge of clones): 2.0; expression change (fold): Fibronectin 1, isoform 1 preproprotein (Avge of clones): 1.6; expression change (fold): Glycine dehydrogenase (decarboxylating, glycine decdarboxylase, glycine cleavage system protein P) (Avge of clones): 2.5; expression change (fold): I factor (complement) (Avge of clones): 2.3; expression change (fold): Insulin-like growth factor binding protein 3 (Avge of clones): 2.4; expression change (fold): Intercellular adhesion molecule 1 precursor (Avge of clones): 1.9; expression change (fold): Interferon induced transmembrane protein 1 (9-27) (Avge of clones): 1.4; expression change (fold): Interleukin 8 (Avge of clones): 0.5; expression change (fold): Jun B proto-oncogene (Avge of clones): 2.5; expression change (fold): KIAA0161 gene product (Avge of clones): 1.6; expression change (fold): KIAA0303 protein (Avge of clones): 3.5; expression change (fold): KIAA0500 protein (Avge of clones): 3.0; expression change (fold): Killer cell lectin-like receptor subfamily C, member 2 (Avge of clones): 2.7; expression change (fold): Killer cell lectin-like receptor subfamily C, member 3 isoform NKG2-E (Avge of clones): 3.6; expression change (fold): Kynureninase (L-kynurenine hydrolase) (Avge of clones): 2.2; expression change (fold): MHC class II transactivator (Avge of clones): 3.0; expression change (fold): MHC, class II, DQ alpha 1 precursor (Avge of clones): 2.4; expression change (fold): MHC, class II, DQ beta 1 (Avge of clones): 2.5; expression change (fold): Major vault protein (Avge of clones): 2.7; expression change (fold): Nicotinamide N-methyltransferase (Avge of clones): 2.4; expression change (fold): Niemann-Pick disease, type C1 (Avge of clones): 2.1; expression change (fold): Oncostatin M receptor (Avge of clones): 2.0; expression change (fold): Osteoprotegrin (Avge of clones): 2.9; expression change (fold): Prostatic acid phosphatase precursor (Avge of clones): 7.4; expression change (fold): Ras-induced senescence 1 (Avge of clones): 1.8; expression change (fold): Regenerating islet-derived 1 alpha (pancreatic stone protein, pancreatic thread protein) (Avge of clones): 3.0; expression change (fold): Regulator of G protein signalling 16 (Avge of clones): 2.9; expression change (fold): STAT induced STAT inhibitor 3 (Avge of clones): 10.7; expression change (fold): Secreted phosphoprotein 1 (osteopontin, bone sialoprotein 1, early T-lymphocyte activation 1) (Avge of clones): 7.5; expression change (fold): Serine (or cysteine) protease inhibitor, clade B (ovalbumin), member 3 (Avge of clones): 27.8; expression change (fold): Small inducible cytokine A2 (monocyte chemotactic protein 1) (Avge of clones): 1.2; expression change (fold): Solute carrier family 2 (facilitated glucose transporter), member 3 (Avge of clones): 2.3; expression change (fold): Stanniocalcin 1 (Avge of clones): 3.7; expression change (fold): Tyrosine phosphatase/TIGR = HG620-HT620 (Avge of clones): 1.2; expression change (fold): v-fos FBJ murine osteosarcoma viral gene homologue (Avge of clones): 3.7; expression change (fold): v-jun avian sarcoma virus 17 oncogene homologue (Avge of clones): 1.2; expression change (fold): v-maf musculoaponeurotic fibrosarcoma oncogene homologue (avian) (Avge of clones): 3.0; expression change (fold): Aquaporin 3 (Avge of clones, 2nd listing): 8.0; expression change (fold): Fibronectin 1, isoform 1 preproprotein (Avge of clones, 2nd listing): 1.5; expression change (fold): Insulin-like growth factor binding protein 3 (Avge of clones, 2nd listing): 2.0; expression change (fold): Interleukin 8 (Avge of clones, 2nd listing): 0.9; expression change (fold): Kynureninase (L-kynurenine hydrolase) (Avge of clones, 2nd listing): 1.5; expression change (fold): Oncostatin M receptor (Avge of clones, 2nd listing): 1.9; expression change (fold): Prostatic acid phosphatase precursor (Avge of clones, 2nd listing): 1.3; expression change (fold): Secreted phosphoprotein 1 (osteopontin, bone sialoprotein 1, early T-lymphocyte activation 1) (Avge of clones, 2nd listing): 4.6; expression change (fold): v-jun avian sarcoma virus 17 oncogene homologue (Avge of clones, 2nd listing): 1.5; expression change (fold): Kynureninase (L-kynurenine hydrolase) (Avge of clones, 3rd listing): 1.7; expression change (fold): Absent in melanoma 2 (Clone1): 2.7; expression change (fold): Alpha-1-antichymotrypsin precursor (Clone1): 3.1; expression change (fold): Aquaporin 3 (Clone1): 4.5; expression change (fold): Brain-derived neurotrophic factor (Clone1): 4.8; expression change (fold): CCAAT/enhancer binding protein (C/EBP), delta (Clone1): 3.9; expression change (fold): Cathepsin L (Clone1): 2.3; expression change (fold): Cytokine receptor-like factor 1 (Clone1): 3.0; expression change (fold): Death-associated protein kinase 1 (Clone1): 3.5; expression change (fold): Ephrin A1 precursor (Clone1): 1.3; expression change (fold): Ets variant gene 6 (Clone1): 3.9; expression change (fold): Fibronectin (Clone1): 0.9; expression change (fold): Fibronectin 1, isoform 1 preproprotein (Clone1): 1.2; expression change (fold): Glycine dehydrogenase (decarboxylating, glycine decdarboxylase, glycine cleavage system protein P) (Clone1): 2.5; expression change (fold): I factor (complement) (Clone1): 2.5; expression change (fold): Insulin-like growth factor binding protein 3 (Clone1): 2.6; expression change (fold): Intercellular adhesion molecule 1 precursor (Clone1): 1.7; expression change (fold): Interferon induced transmembrane protein 1 (9-27) (Clone1): 2.2; expression change (fold): Interleukin 8 (Clone1): 0.4; expression change (fold): Jun B proto-oncogene (Clone1): 2.7; expression change (fold): KIAA0161 gene product (Clone1): 1.5; expression change (fold): KIAA0303 protein (Clone1): 4.5; expression change (fold): KIAA0500 protein (Clone1): 2.3; expression change (fold): Killer cell lectin-like receptor subfamily C, member 2 (Clone1): 4.3; expression change (fold): Killer cell lectin-like receptor subfamily C, member 3 isoform NKG2-E (Clone1): 6.7; expression change (fold): Kynureninase (L-kynurenine hydrolase) (Clone1): 2.6; expression change (fold): MHC class II transactivator (Clone1): 3.4; expression change (fold): MHC, class II, DQ alpha 1 precursor (Clone1): 2.5; expression change (fold): MHC, class II, DQ beta 1 (Clone1): 2.4; expression change (fold): Major vault protein (Clone1): 2.9; expression change (fold): Nicotinamide N-methyltransferase (Clone1): 2.8; expression change (fold): Niemann-Pick disease, type C1 (Clone1): 1.7; expression change (fold): Oncostatin M receptor (Clone1): 1.9; expression change (fold): Osteoprotegrin (Clone1): 5.2; expression change (fold): Prostatic acid phosphatase precursor (Clone1): 4.5; expression change (fold): Ras-induced senescence 1 (Clone1): 1.8; expression change (fold): Regenerating islet-derived 1 alpha (pancreatic stone protein, pancreatic thread protein) (Clone1): 3.0; expression change (fold): Regulator of G protein signalling 16 (Clone1): 3.7; expression change (fold): STAT induced STAT inhibitor 3 (Clone1): 11.6; expression change (fold): Secreted phosphoprotein 1 (osteopontin, bone sialoprotein 1, early T-lymphocyte activation 1) (Clone1): 3.8; expression change (fold): Serine (or cysteine) protease inhibitor, clade B (ovalbumin), member 3 (Clone1): 28.8; expression change (fold): Small inducible cytokine A2 (monocyte chemotactic protein 1) (Clone1): 0.9; expression change (fold): Solute carrier family 2 (facilitated glucose transporter), member 3 (Clone1): 1.9; expression change (fold): Stanniocalcin 1 (Clone1): 2.8; expression change (fold): Tyrosine phosphatase/TIGR = HG620-HT620 (Clone1): 0.9; expression change (fold): v-fos FBJ murine osteosarcoma viral gene homologue (Clone1): 2.9; expression change (fold): v-jun avian sarcoma virus 17 oncogene homologue (Clone1): 1.4; expression change (fold): v-maf musculoaponeurotic fibrosarcoma oncogene homologue (avian) (Clone1): 2.5; expression change (fold): Aquaporin 3 (Clone1, 2nd listing): 9.2; expression change (fold): Fibronectin 1, isoform 1 preproprotein (Clone1, 2nd listing): 0.6; expression change (fold): Insulin-like growth factor binding protein 3 (Clone1, 2nd listing): 2.4; expression change (fold): Interleukin 8 (Clone1, 2nd listing): 1.2; expression change (fold): Kynureninase (L-kynurenine hydrolase) (Clone1, 2nd listing): 1.8; expression change (fold): Oncostatin M receptor (Clone1, 2nd listing): 1.9; expression change (fold): Prostatic acid phosphatase precursor (Clone1, 2nd listing): 1.0; expression change (fold): Secreted phosphoprotein 1 (osteopontin, bone sialoprotein 1, early T-lymphocyte activation 1) (Clone1, 2nd listing): 3.5; expression change (fold): v-jun avian sarcoma virus 17 oncogene homologue (Clone1, 2nd listing): 1.8; expression change (fold): Kynureninase (L-kynurenine hydrolase) (Clone1, 3rd listing): 1.9; expression change (fold): Absent in melanoma 2 (Clone2): 3.1; expression change (fold): Alpha-1-antichymotrypsin precursor (Clone2): 2.4; expression change (fold): Aquaporin 3 (Clone2): 3.8; expression change (fold): Brain-derived neurotrophic factor (Clone2): 4.7; expression change (fold): CCAAT/enhancer binding protein (C/EBP), delta (Clone2): 1.6; expression change (fold): Cathepsin L (Clone2): 3.4; expression change (fold): Cytokine receptor-like factor 1 (Clone2): 0.9; expression change (fold): Death-associated protein kinase 1 (Clone2): 6.9; expression change (fold): Ephrin A1 precursor (Clone2): 2.9; expression change (fold): Ets variant gene 6 (Clone2): 4.0; expression change (fold): Fibronectin (Clone2): 3.1; expression change (fold): Fibronectin 1, isoform 1 preproprotein (Clone2): 1.9; expression change (fold): Glycine dehydrogenase (decarboxylating, glycine decdarboxylase, glycine cleavage system protein P) (Clone2): 2.5; expression change (fold): I factor (complement) (Clone2): 2.2; expression change (fold): Insulin-like growth factor binding protein 3 (Clone2): 2.1; expression change (fold): Intercellular adhesion molecule 1 precursor (Clone2): 2.1; expression change (fold): Interferon induced transmembrane protein 1 (9-27) (Clone2): 0.6; expression change (fold): Interleukin 8 (Clone2): 0.6; expression change (fold): Jun B proto-oncogene (Clone2): 2.2; expression change (fold): KIAA0161 gene product (Clone2): 1.7; expression change (fold): KIAA0303 protein (Clone2): 2.4; expression change (fold): KIAA0500 protein (Clone2): 3.8; expression change (fold): Killer cell lectin-like receptor subfamily C, member 2 (Clone2): 1.0; expression change (fold): Killer cell lectin-like receptor subfamily C, member 3 isoform NKG2-E (Clone2): 0.4; expression change (fold): Kynureninase (L-kynurenine hydrolase) (Clone2): 1.7; expression change (fold): MHC class II transactivator (Clone2): 2.6; expression change (fold): MHC, class II, DQ alpha 1 precursor (Clone2): 2.3; expression change (fold): MHC, class II, DQ beta 1 (Clone2): 2.6; expression change (fold): Major vault protein (Clone2): 2.5; expression change (fold): Nicotinamide N-methyltransferase (Clone2): 1.9; expression change (fold): Niemann-Pick disease, type C1 (Clone2): 2.4; expression change (fold): Oncostatin M receptor (Clone2): 2.1; expression change (fold): Osteoprotegrin (Clone2): 0.7; expression change (fold): Prostatic acid phosphatase precursor (Clone2): 10.2; expression change (fold): Ras-induced senescence 1 (Clone2): 1.9; expression change (fold): Regenerating islet-derived 1 alpha (pancreatic stone protein, pancreatic thread protein) (Clone2): 3.0; expression change (fold): Regulator of G protein signalling 16 (Clone2): 2.1; expression change (fold): STAT induced STAT inhibitor 3 (Clone2): 9.7; expression change (fold): Secreted phosphoprotein 1 (osteopontin, bone sialoprotein 1, early T-lymphocyte activation 1) (Clone2): 11.3; expression change (fold): Serine (or cysteine) protease inhibitor, clade B (ovalbumin), member 3 (Clone2): 26.7; expression change (fold): Small inducible cytokine A2 (monocyte chemotactic protein 1) (Clone2): 1.5; expression change (fold): Solute carrier family 2 (facilitated glucose transporter), member 3 (Clone2): 2.6; expression change (fold): Stanniocalcin 1 (Clone2): 4.6; expression change (fold): Tyrosine phosphatase/TIGR = HG620-HT620 (Clone2): 1.6; expression change (fold): v-fos FBJ murine osteosarcoma viral gene homologue (Clone2): 4.6; expression change (fold): v-jun avian sarcoma virus 17 oncogene homologue (Clone2): 1.0; expression change (fold): v-maf musculoaponeurotic fibrosarcoma oncogene homologue (avian) (Clone2): 3.5; expression change (fold): Aquaporin 3 (Clone2, 2nd listing): 6.7; expression change (fold): Fibronectin 1, isoform 1 preproprotein (Clone2, 2nd listing): 2.3; expression change (fold): Insulin-like growth factor binding protein 3 (Clone2, 2nd listing): 1.7; expression change (fold): Interleukin 8 (Clone2, 2nd listing): 0.7; expression change (fold): Kynureninase (L-kynurenine hydrolase) (Clone2, 2nd listing): 1.3; expression change (fold): Oncostatin M receptor (Clone2, 2nd listing): 2.0; expression change (fold): Prostatic acid phosphatase precursor (Clone2, 2nd listing): 1.7; expression change (fold): Secreted phosphoprotein 1 (osteopontin, bone sialoprotein 1, early T-lymphocyte activation 1) (Clone2, 2nd listing): 5.7; expression change (fold): v-jun avian sarcoma virus 17 oncogene homologue (Clone2, 2nd listing): 1.1; expression change (fold): Kynureninase (L-kynurenine hydrolase) (Clone2, 3rd listing): 1.4
